Key:
[1] = tested on: eosinophil recruitment; assay: Mouse peritonitis model (ovalbumin, eosinophil recruitment); format: in vivo; conditions: 50 mg/kg/dose subcutaneous at -24, -2, +2 and +6 hrs around ovalbumin challenge; Balb/C mice; 48 hrs post-challenge; FIG. 2
Procedure: (§1) Balb/C mice (n=10) were sensitized to ovalbumin on days 0 and 7 with a subcutaneous injection of ovalbumin absorbed in aluminum hydroxide. They were then challenged with an intraperitoneal injection of ovalbumin and sacrificed 48 hrs post-challenge. Peritoneal fluid was then collected and spun down onto slides. Slides were stained with DiffQuik and a differential performed. The test compound was administered by subcutaneously injection −24, −2, +2 and +6 hrs around the time of ovalbumin challenge. This is a model of allergic inflammation as eosinophils are the major leukocyte recruited into the peritoneum.
as §1, with “compound wase” for “compound was”

[2] = tested on: paw edema; assay: Paw edema model (delayed type hypersensitivity, metBSA); format: in vivo; conditions: 50 mg/kg/dose intraperitoneal at -24, -2 and +6 hrs around metBSA challenge; Balb/C mice; 24 hours after challenge; FIG. 3
Procedure: Balb/C mice (n=5) were sensitized intradermally on day 0 with methylated BSA (metBSA). They were then challenged with metBSA on day 7 in the right hind paw. The animals were sacrificed 24 hours later and the left and right hind paws weighed. The left hindpaw weight is subtracted from the right hind paw to give the paw weight increase. The test compound was administered by intraperitoneal injection −24, −2 and +6 hrs around the time of metBSA challenge.

## COc1cc(OC)c(-c2cc3ccccc3s2)cc1/C=C/C(=O)c1cc(OC)c(OC)c(OC)c1 [3-[5-(benzo[b]thien-2-yl)-2,4-dimethoxyphenyl]-1-(3,4,5-trimethoxyphenyl)-2-propen-1-one]
[1]
  inhibition of eosinophil recruitment (percent eosinophils in the peritoneal fluid): inhibition of eosinophil recruitment
[2]
  inhibition of paw edema (paw weight increase): inhibition of paw edema

Source: patent publication US20060258735A1, “1,3-Bis-(substituted-phenyl)-2-propen-1-ones and their use to treat VCAM-1 mediated disorders” (priority 2000, published 2006)
